Test system: P12-Ichikawa
Assay: cell viability relative to DMSO control; higher = less cytotoxic
Conditions: 48 h
Method in brief: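 NOMO1, SEM and P12-Ichikawa leukemia cells spent at least four passages adapting to each medium before use. They were seeded at 500 cells/well (NOMO1, SEM) or 1000 cells/well (P12-Ichikawa) in 5 μl in 1536-well plates and pin-dosed with library compounds in DMSO at 11 threefold steps from 47 μM down to 0.79 nM. After 48 h at 37°C, CellTiter-Glo One luminescence was read. Viability is reported as a percentage of the DMSO wells on each plate, with cell-free wells as background.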

[1] = HPLM + 10% dialyzed FBS, 0.000781 µM
[2] = HPLM + 10% dialyzed FBS, 0.00234 µM
[3] = HPLM + 10% dialyzed FBS, 0.00702 µM
[4] = HPLM + 10% dialyzed FBS, 0.0211 µM
[5] = HPLM + 10% dialyzed FBS, 0.0632 µM
[6] = HPLM + 10% dialyzed FBS, 0.19 µM
[7] = HPLM + 10% dialyzed FBS, 0.569 µM
[8] = HPLM + 10% dialyzed FBS, 1.71 µM
[9] = HPLM + 10% dialyzed FBS, 5.12 µM
[10] = HPLM + 10% dialyzed FBS, 15.4 µM
[11] = HPLM + 10% dialyzed FBS, 46.1 µM
[12] = RPMI 5 mM glucose + 10% FBS, 0.000781 µM
[13] = RPMI 5 mM glucose + 10% FBS, 0.00234 µM
[14] = RPMI 5 mM glucose + 10% FBS, 0.00702 µM
[15] = RPMI 5 mM glucose + 10% FBS, 0.0211 µM
[16] = RPMI 5 mM glucose + 10% FBS, 0.0632 µM
[17] = RPMI 5 mM glucose + 10% FBS, 0.19 µM
[18] = RPMI 5 mM glucose + 10% FBS, 0.569 µM
[19] = RPMI 5 mM glucose + 10% FBS, 1.71 µM
[20] = RPMI 5 mM glucose + 10% FBS, 5.12 µM
[21] = RPMI 5 mM glucose + 10% FBS, 15.4 µM
[22] = RPMI 5 mM glucose + 10% FBS, 46.1 µM
[23] = RPMI 5 mM glucose + 10% dialyzed FBS, 0.000781 µM
[24] = RPMI 5 mM glucose + 10% dialyzed FBS, 0.00234 µM
[25] = RPMI 5 mM glucose + 10% dialyzed FBS, 0.00702 µM
[26] = RPMI 5 mM glucose + 10% dialyzed FBS, 0.0211 µM
[27] = RPMI 5 mM glucose + 10% dialyzed FBS, 0.0632 µM
[28] = RPMI 5 mM glucose + 10% dialyzed FBS, 0.19 µM
[29] = RPMI 5 mM glucose + 10% dialyzed FBS, 0.569 µM
[30] = RPMI 5 mM glucose + 10% dialyzed FBS, 1.71 µM
[31] = RPMI 5 mM glucose + 10% dialyzed FBS, 5.12 µM
[32] = RPMI 5 mM glucose + 10% dialyzed FBS, 15.4 µM
[33] = RPMI 5 mM glucose + 10% dialyzed FBS, 46.1 µM

Structure (SMILES)	cell viability [1] [%]	cell viability [2] [%]	cell viability [3] [%]	cell viability [4] [%]	cell viability [5] [%]	cell viability [6] [%]	cell viability [7] [%]	cell viability [8] [%]	cell viability [9] [%]	cell viability [10] [%]	cell viability [11] [%]	cell viability [12] [%]	cell viability [13] [%]	cell viability [14] [%]	cell viability [15] [%]	cell viability [16] [%]	cell viability [17] [%]	cell viability [18] [%]	cell viability [19] [%]	cell viability [20] [%]	cell viability [21] [%]	cell viability [22] [%]	cell viability [23] [%]	cell viability [24] [%]	cell viability [25] [%]	cell viability [26] [%]	cell viability [27] [%]	cell viability [28] [%]	cell viability [29] [%]	cell viability [30] [%]	cell viability [31] [%]	cell viability [32] [%]	cell viability [33] [%]
Oc1nc(-c2ccc(C(F)(F)F)cc2)nc2c1CSCC2	102	109	96.1	102	109	108	106	98.1	100	91.5	94	101	102	100	84.2	107	99.5	108	99	87.7	96.8	85.4	95.1	90.9	95.5	86.3	90.7	94.7	94.4	99	87.6	87.8	79.3
COC(=O)C\1=C(C)\N\C(=C(/C1C2=CC=CC3=NON=C23)C(=O)OC(C)C)C (centres undefined)	100	102	99.4	95	102	93.8	96.9	96.1	88	90.2	87.7	96.1	101	100	94.8	104	98.8	93.1	94.2	87	86.9	87.4	97.6	94.6	88.5	95.2	101	90.4	88.7	87.2	93.4	86.6	86.1
COc1cc[nH]c2ncc(C(=O)C(=O)N3CCN(C(=O)c4ccccc4)C[C@H]3C)c1-2	114	112	118	111	112	109	108	101	106	103	102	114	118	119	117	117	117	122	111	107	111	97.5	105	109	96.9	110	101	99.1	116	103	99.4	99.5	103
CCc1ccc(/C=C2/SC(=S)NC2=O)cc1	84.2	87.7	79.6	88.1	90.9	80.1	91.5	84	85.3	60	88.1	82.4	84.6	76	88.9	82.8	77.7	85.1	87.3	84.8	46.1	87.9	77.4	83.8	81.7	81.2	87.1	76.6	87.3	83.5	81.9	38.1	90.4
CCCCOCCOc1nc(-c2ccc(C(=O)O)c(F)c2)sc1C	119	116	112	116	119	112	115	112	107	94.5	110	124	117	118	120	120	110	108	100	99.7	86.5	97.6	123	127	124	121	116	114	118	105	111	85	113
COc1cccc2c1C(=O)c1c(O)c3c(c(O)c1C2=O)C[C@@](O)(C(=O)CO)C[C@@H]3O[C@H]1C[C@H](N)[C@H](O)[C@H](C)O1	115	114	112	117	116	107	98.6	58.2	7.45	5.63	11.9	113	116	119	114	113	108	93.8	44.7	7.04	5.82	8.62	109	114	108	107	117	106	92.2	67	7.81	7.58	13
COc1ccc2c(c1)CN(C)CC2c1ccc(Cl)c(Cl)c1 (centres undefined)	128	121	125	125	134	133	125	123	133	131	116	–	–	–	–	–	–	–	–	–	–	–	–	–	–	–	–	–	–	–	–	–	–

Source: the supplement of paper PMC11451515
